Source: publication PMC8588467, “Rational Design 2-Hydroxypropylphosphonium Salts as Cancer Cell Mitochondria-Targeted Vectors: Synthesis, Structure, and Biological Properties” (Molecules, 2021)
Read-outs that look alike come from different tables or passages of the source. One block for each compound: values may come before it.

What was measured:
[1] = system: HuTu 80 (human duodenal adenocarcinoma); experiment: MTT cytotoxicity, HuTu 80; assay type: cell-based; conditions: for IC50: mean ± SD, triplicate; for SI HuTu 80: IC50 normal cells (WI38) / IC50 cancer cells, ns = no selectivity; for anti-cancer activity against the HuTu 80 cell line relative to doxorubicin: words
[2] = system: M-HeLa (human cervix epitheloid carcinoma); experiment: MTT cytotoxicity, M-HeLa; assay type: cell-based; conditions: for IC50: MTT, mean ± SD, triplicate; for SI M-HeLa: IC50 normal cells (WI38) / IC50 cancer cells, ns = no selectivity
[3] = system: MCF-7 (human breast adenocarcinoma); experiment: MTT cytotoxicity, MCF-7; assay type: cell-based; conditions: for IC50: mean ± SD, triplicate; for SI MCF-7: IC50 normal cells (WI38) / IC50 cancer cells, ns = no selectivity
[4] = system: A549 (human lung carcinoma); experiment: MTT cytotoxicity, A549; assay type: cell-based; conditions: for IC50: mean ± SD, triplicate; for SI A549: IC50 normal cells (WI38) / IC50 cancer cells, ns = no selectivity
[5] = system: T98G glioblastoma cell line; experiment: MTT cytotoxicity, T98G; assay type: cell-based, human; conditions: for IC50: MTT, mean ± SD, triplicate; for SI T98G: IC50 normal cells (WI38) / IC50 cancer cells, ns = no selectivity
[6] = system: WI38 (diploid human embryo lung); experiment: MTT cytotoxicity, normal cells WI38; assay type: cell-based; conditions: mean ± SD, triplicate, read-out: WI38 IC50 (normal cell line)
HuTu-80 cells [7] = experiment: Induction of apoptosis, annexin V/propidium iodide flow cytometry; assay type: cell-based, human; conditions: IC50/2, 48-h incubation
Protocol: Apoptosis is one of the most significant mechanisms used for screening new anti-cancer agents. The apoptosis-inducing effect was carried out on lead compounds 3a, b, k, j and 4c showing high selectivity against HuTu-80 cells. The studies were carried out by flow cytometry at concentrations IC50/2 and IC50 (Figure 4). […] The percentage of apoptotic cells in early and late phases was slightly changed with increase compound concentration up to IC50.
HuTu 80 cells at 1 × 10^6 cells/well in a final volume of 2 mL were seeded into six-well plates. After 48 h of incubation, various concentrations of compounds 3a,b and 3k were added to wells.
The cells were harvested at 2000 rpm for 5 min and, then, washed twice with ice-cold PBS, followed by resuspension in binding buffer. Next, the samples were incubated with 5 μL of annexin V-Alexa Fluor 647 (Sigma–Aldrich, St. Louis, MO, USA) and 5 μL of propidium iodide for 15 min at room temperature in the dark. Finally, the cells were analyzed by flow cytometry (Guava easy Cyte, MERCK, Rahway, NJ, USA) within 1 h. The experiments were repeated three times.

HuTu-80 cells [8] = experiment: Mitochondrial membrane potential, JC-10 flow cytometry; assay type: cell-based, human; conditions: for % cells with J-aggregate (red, high membrane potential) / % cells with J-monomer (green, decreased membrane potential): JC-10; for effect on mitochondrial membrane potential: more pronounced with increase of concentration up to IC50
From the text: Apoptosis induction by 3a, b, k, j and 4c through the mitochondrial pathway and HuTu-80 cell line was studied by flow cytometry using the fluorescent dye JC-10 from the Mitochondria Membrane Potential Kit. JC-10 accumulated in the mitochondrial matrix and formed aggregates (J-aggregate) with red fluorescence in normal cells with a high mitochondrial membrane potential. The membrane potential decreased in apoptotic cells. JC-10 started to diffuse out from the mitochondria and converts to the monomeric form (J-monomer) and emits green fluorescence. This is recorded with a flow cytometer. […] The process became more pronounced with an increase of 3a, b, 3k, j and 4c concentrations up to IC50 (Figure 5 and Figure 6).
Cells were harvested at 2000 rpm for 5 min and then washed twice with ice-cold PBS, followed by resuspension in JC-10 (10 µg/mL) and incubation at 37 °C for 10 min. After the cells were rinsed three times and suspended in PBS, the JC-10 fluorescence was observed by flow cytometry (Guava easy Cyte, MERCK, NJ, USA).

HuTu-80 cells [9] = experiment: Intracellular ROS production, CellROX Deep Red flow cytometry; assay type: cell-based, human; conditions: for CellROX Deep Red fluorescence intensity (ROS production): control 600; for ROS generation: compared to 3a and 3b and control (untreated cells)
From the text: Increasing the production of reactive oxygen species (ROS) by compounds characterizes the mitochondrial apoptotic pathway. Mitochondria are a potential source and target of ROS. ROS lead to disruption of mitochondrial functions and, as a consequence, to irreversible cell damage. In this regard, the effect of test compounds in HuTu-80 cells on ROS production, using flow cytometry analysis and CellROX® Deep Red flow cytometry kit was investigated. Data presented in Figure 7 show a significant increase in CellROX® Deep Red fluorescence intensity. This indicates an increase in ROS production in the presence of the tested compounds.
ROS generation was investigated using flow cytometry assay and CellROX® Deep Red flow cytometry kit. For this HuTu 80 cells were harvested at 2000 rpm for 5 min and then washed twice with ice-cold PBS, followed by resuspension in 0.1 mL of medium without FBS, to which was added 0.2 μL of Cell ROX® Deep Red and incubated at 37 °C for 30 min After three times washing the cells and suspending them in PBS, the production of ROS in the cells was immediately monitored using flow cytometer Guava easy Cyte, MERCK, NJ, USA).

human cancer cell lines = experiment: MTT cytotoxicity, summary statements over several cell lines; assay type: cell-based; conditions: for IC50: Homo sapiens, HuTu80, lines other than HuTu 80 and PC3, read-out: IC50 concentration values against other human cancer lines
[10] = system: PC3 (human prostate adenocarcinoma); experiment: MTT cytotoxicity, PC3; conditions: for IC50: mean ± SD, triplicate; for SI PC3: IC50 normal cells (WI38) / IC50 cancer cells, ns = no selectivity; for cytotoxic effect against the PC3 line relative to doxorubicin: words
[11] = In vitro rhodamine B release, dialysis bag diffusion method; assay type: physicochemical; conditions: aqueous solution without nanoparticles; phosphate buffer 0.025 M, pH 7.4, 37 °C
Protocol: The monitoring of rhodamine B release from liposomes was performed using the dialysis bag diffusion method. Dialysis bags retain liposomes and allow the released rhodamine B to diffuse into the medium. The bags were soaked in Milli-Q water for 12 h before use. Then, 0.4 mL of liposomes were poured into the dialysis bag. The two bag ends were sealed with clamps. The bags were then placed in a vessel containing 100 mL of 0.025 M sodium phosphate buffer pH 7.4, the receiving phase. The vessel was placed in a thermostatic shaker (New Brunswick, NJ, USA) at 37 °C, under a stirring rate of 150 rpm. At predetermined time intervals, 0.5 mL of samples were withdrawn, and their absorbance at 554 nm was measured using Perkin Elmer λ35 (Perkin Elmer Instruments, Norwalk, CT, USA). All samples were analyzed in triplicate. The extinction coefficient of rhodamine B is 106,089 M^−1 cm^−1 at pH = 7.4.

[12] = Homo sapiens, read-out: IC50 PC3, MTT

Compound: CCCCCCCCCCOCC(O)C[P+](c1ccccc1)(c1ccccc1)c1ccccc1 (centres unmarked) [3j, (3-(Decyloxy)-2-hydroxypropyl)triphenylphosphonium trifluoromethanesulfonate]
IC50 ([1]; Homo sapiens, HuTu80, MTT): 500 ± 30 nM
SI HuTu 80 [1]: 6.2
anti-cancer activity against the HuTu 80 cell line relative to doxorubicin [1]: comparable to doxorubicin activity
IC50 ([2]; Homo sapiens, M-HeLa): 1100 ± 90 nM
SI M-HeLa [2]: 3
IC50 ([3]; Homo sapiens, MCF7, MTT): 2900 ± 200 nM
SI MCF-7 [3]: 1.1
IC50 ([4]; Homo sapiens, A549, MTT): 3700 ± 300 nM
SI A549 [4]: ns
IC50 ([5]; Homo sapiens, T98G): 1700 ± 100 nM
SI T98G [5]: 2
IC50 ([6]; Homo sapiens, WI-38, MTT): 3100 ± 200 nM
apoptosis induction (HuTu-80 cells [7]): actively induce apoptosis
% cells with J-aggregate (red, high membrane potential) (HuTu-80 cells [8]; IC50, 48 h): 50.1%
% cells with J-monomer (green, decreased membrane potential) (HuTu-80 cells [8]; IC50, 48 h): 48.2%
% cells with J-aggregate (red, high membrane potential) (HuTu-80 cells [8]; IC50/2, 48 h): 89.6%
% cells with J-monomer (green, decreased membrane potential) (HuTu-80 cells [8]; IC50/2, 48 h): 10.4%
effect on mitochondrial membrane potential (HuTu-80 cells [8]): decrease the mitochondrial membrane potential
CellROX Deep Red fluorescence intensity (ROS production) (HuTu-80 cells [9]; IC50, 48 h): 3700
CellROX Deep Red fluorescence intensity (ROS production) (HuTu-80 cells [9]; IC50/2, 48 h): 2500
ROS generation (HuTu-80 cells [9]): most active to generate ROS
IC50 (human cancer cell lines): 1100 to 3700 nM
IC50 [10, 12]: 600 ± 50 nM
SI PC3 [10]: 5.2
cytotoxic effect against the PC3 line relative to doxorubicin [10]: two times higher than doxorubicin

Compound: COc1cccc2c1C(=O)c1c(O)c3c(c(O)c1C2=O)C[C@@](O)(C(=O)CO)C[C@@H]3O[C@H]1C[C@H](N)[C@H](O)[C@H](C)O1 [Dox, doxorubicin, reference compound]
IC50 ([1]; Homo sapiens, HuTu80, MTT): 200 ± 10 nM
SI HuTu 80 [1]: 4
IC50 ([2]; Homo sapiens, M-HeLa): 2100 ± 100 nM
SI M-HeLa [2]: ns
IC50 ([3]; Homo sapiens, MCF7, MTT): 400 ± 30 nM
SI MCF-7 [3]: 2
IC50 ([4]; Homo sapiens, A549, MTT): 700 ± 500 nM
SI A549 [4]: 1.1
IC50 ([5]; Homo sapiens, T98G): 2000 ± 100 nM
SI T98G [5]: ns
IC50 ([6]; Homo sapiens, WI-38, MTT): 800 ± 70 nM
selectivity relative to the leading compounds (human cancer cell lines): significantly inferior to the leading compounds in selectivity
IC50 [10, 12]: 1400 ± 100 nM
SI PC3 [10]: ns

Compound: C=CCOCC(O)C[P+](c1ccccc1)(c1ccccc1)c1ccccc1.[I-] (centres unmarked) [4c, (3-(Allyloxy)-2-hydroxypropyl)triphenylphosphonium iodide]
SI HuTu 80 [1]: 12.3
IC50 ([1]; MTT): 300 ± 20 nM
anti-cancer activity against the HuTu 80 cell line relative to doxorubicin [1]: comparable to doxorubicin activity
SI M-HeLa [2]: 3.4
IC50 [2]: 1100 ± 90 nM
SI MCF-7 [3]: 1.4
IC50 ([3]; MTT): 2700 ± 200 nM
SI A549 [4]: 1.4
IC50 ([4]; MTT): 2600 ± 200 nM
SI T98G [5]: 1.8
IC50 [5]: 2000 ± 100 nM
IC50 ([6]; MTT): 3700 ± 300 nM
apoptosis induction (HuTu-80 cells [7]): actively induce apoptosis
% cells with J-aggregate (red, high membrane potential) (HuTu-80 cells [8]; IC50, 48 h): 51.1%
% cells with J-monomer (green, decreased membrane potential) (HuTu-80 cells [8]; IC50, 48 h): 46.9%
% cells with J-aggregate (red, high membrane potential) (HuTu-80 cells [8]; IC50/2, 48 h): 88.5%
% cells with J-monomer (green, decreased membrane potential) (HuTu-80 cells [8]; IC50/2, 48 h): 11.3%
effect on mitochondrial membrane potential (HuTu-80 cells [8]): decrease the mitochondrial membrane potential
CellROX Deep Red fluorescence intensity (ROS production) (HuTu-80 cells [9]; IC50, 48 h): 4300
CellROX Deep Red fluorescence intensity (ROS production) (HuTu-80 cells [9]; IC50/2, 48 h): 3200
ROS generation (HuTu-80 cells [9]): most active to generate ROS
IC50 (human cancer cell lines): 1100 to 3700 nM
SI PC3 [10]: 5.3
IC50 ([10]; read-out: IC50 PC3, MTT): 700 ± 60 nM
cytotoxic effect against the PC3 line relative to doxorubicin [10]: two times higher than doxorubicin

time of release of 50% Rhodamine B [11]: ≤ 20 min
Compound: CCN(CC)c1ccc2c(-c3ccccc3C(=O)O)c3ccc(=[N+](CC)CC)cc-3oc2c1 [Rhodamine B]

Compound: OC(CBr)C[P+](c1ccccc1)(c1ccccc1)c1ccccc1 (centres unmarked) [3b, (3-Bromo-2-hydroxypropyl)triphenylphosphonium trifluoromethanesulfonate]
IC50 ([1]; Homo sapiens, HuTu80, MTT): 3000 ± 100 nM
SI HuTu 80 [1]: 5
IC50 ([2]; Homo sapiens, M-HeLa): 30100 ± 2400 nM
SI M-HeLa [2]: ns
IC50 ([3]; Homo sapiens, MCF7, MTT): 34000 ± 2600 nM
SI MCF-7 [3]: ns
IC50 ([4]; Homo sapiens, A549, MTT): > 100000 nM
SI A549 [4]: ns
IC50 ([5]; Homo sapiens, T98G): 56000 ± 4500 nM
SI T98G [5]: ns
IC50 ([6]; Homo sapiens, WI-38, MTT): 13800 ± 1100 nM
apoptosis induction (HuTu-80 cells [7]): actively induce apoptosis
% cells with J-aggregate (red, high membrane potential) (HuTu-80 cells [8]; IC50, 48 h): 48.1%
% cells with J-monomer (green, decreased membrane potential) (HuTu-80 cells [8]; IC50, 48 h): 51.9%
% cells with J-aggregate (red, high membrane potential) (HuTu-80 cells [8]; IC50/2, 48 h): 54.5%
% cells with J-monomer (green, decreased membrane potential) (HuTu-80 cells [8]; IC50/2, 48 h): 45.5%
effect on mitochondrial membrane potential (HuTu-80 cells [8]): decrease the mitochondrial membrane potential
CellROX Deep Red fluorescence intensity (ROS production) (HuTu-80 cells [9]; IC50, 48 h): 1580
CellROX Deep Red fluorescence intensity (ROS production) (HuTu-80 cells [9]; IC50/2, 48 h): 1200
IC50 [10, 12]: 23300 ± 1900 nM
SI PC3 [10]: ns
